Tests used:
PRMT5 [1] = molecular target: T1, PRMT5 (Homo sapiens, UniProt O14744); test: PRMT5 biochemical IC50 assay with SAM as cofactor; details: PRMT5, SAM as cofactor; read-out: SAM IC50
T1 construct: purchased Viva (custom protein)

PRMT5 [2] = molecular target: T1, PRMT5; test: PRMT5 biochemical IC50 assay with MTA as cofactor; details: PRMT5, MTA as cofactor; read-out: MTA IC50
[3] = tested on: HAP1 MTAP-deleted cell line; test: SDMA in-cell western assay, HAP1 MTAP-deleted; format: cell-based; details: for IC50: Homo sapiens, HAP1, SDMA in-cell western, HAP1 MTAP-deleted, read-out: HAP 1 MTAP deleted IC50; for MTAP intact/deleted ratio: IC50 ratio HAP1 MTAP-intact / HAP1 MTAP-deleted, SDMA in-cell western
Method in brief: (§1)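 MTAP-null vs endogenous-MTAP HAP1 isogenic cells; in-cell western SDMA readout; IC50 per line.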

[4] = tested on: HAP1 MTAP-deleted cell line; test: Viability assay, MTAP-deleted cell line; format: cell-based; details: Homo sapiens, HAP1, viability assay, MTAP-deleted cell line; read-out: HAP1 MTAP deleted viability
Excerpt: Table 1 additionally indicates IC50 values in a viability assay for the MTAP-deleted cell line (column 10), indicating the effect of treatment with compound on cell survival.

PRMT5 [5] = molecular target: T1, PRMT5; test: PRMT5 biochemical IC50 assay with no cofactor; details: PRMT5, no cofactor; read-out: No Cofactor/rel IC50
Excerpt: Table 1 indicates IC50 values (μM) against PRMT5 for exemplary compounds in the presence of SAM as cofactor, with no cofactor, and with MTA as cofactor, respectively (columns 4-6). […] Ki values can be calculated from the IC50 values as described in the Examples section. As detailed in the Examples section, for the assay performed in the presence of SAM, IC50=Ki×1.5 (Ki=IC50/1.5).

[6] = tested on: HAP1 MTAP-intact cell line; test: SDMA in-cell western assay, HAP1 MTAP-intact; format: cell-based; details: Homo sapiens, HAP1, SDMA in-cell western, HAP1 MTAP-intact; read-out: MTAP HAP1 intact IC50
Method in brief: as §1

T1 sequence (O14744 whole entry): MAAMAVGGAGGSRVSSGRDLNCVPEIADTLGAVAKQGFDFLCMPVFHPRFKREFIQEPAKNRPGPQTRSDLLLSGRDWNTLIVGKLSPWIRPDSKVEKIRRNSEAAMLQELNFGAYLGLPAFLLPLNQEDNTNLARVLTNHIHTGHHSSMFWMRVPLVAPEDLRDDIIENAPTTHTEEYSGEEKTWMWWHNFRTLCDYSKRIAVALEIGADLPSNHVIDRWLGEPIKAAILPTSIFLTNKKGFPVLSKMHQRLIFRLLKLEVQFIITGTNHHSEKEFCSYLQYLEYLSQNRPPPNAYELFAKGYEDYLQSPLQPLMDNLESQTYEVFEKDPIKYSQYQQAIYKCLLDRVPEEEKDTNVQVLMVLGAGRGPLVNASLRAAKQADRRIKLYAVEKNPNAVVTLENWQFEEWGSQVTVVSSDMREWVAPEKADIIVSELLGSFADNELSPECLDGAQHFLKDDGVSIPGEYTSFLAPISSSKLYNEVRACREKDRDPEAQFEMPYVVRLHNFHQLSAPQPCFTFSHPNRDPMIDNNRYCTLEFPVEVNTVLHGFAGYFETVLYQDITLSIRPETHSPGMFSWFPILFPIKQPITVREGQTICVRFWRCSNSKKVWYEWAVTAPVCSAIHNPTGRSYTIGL
T1 sequence (Q9BQA1 whole entry partner): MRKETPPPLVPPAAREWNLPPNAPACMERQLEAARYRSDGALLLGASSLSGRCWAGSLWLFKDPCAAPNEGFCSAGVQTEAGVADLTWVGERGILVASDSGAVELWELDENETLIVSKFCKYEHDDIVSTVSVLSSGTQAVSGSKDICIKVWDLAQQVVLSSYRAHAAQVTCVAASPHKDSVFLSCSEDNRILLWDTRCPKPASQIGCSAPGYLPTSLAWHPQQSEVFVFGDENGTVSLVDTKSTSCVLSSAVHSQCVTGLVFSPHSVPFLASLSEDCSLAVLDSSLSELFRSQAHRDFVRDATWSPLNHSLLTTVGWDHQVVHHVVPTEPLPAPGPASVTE

| SMILES | IC50 (PRMT5 [1]) | IC50 (PRMT5 [2]) | IC50 [3] | MTAP intact/deleted ratio [3] | IC50 [4] | IC50 (PRMT5 [5]) | IC50 [6] |
| --- | --- | --- | --- | --- | --- | --- | --- |
| Cc1cc(NC(=O)C(=O)N2C[C@H](C)CC[C@H]2c2ccc3nn(C)cc3c2)cnc1N (racemic) [Compound 912] | 50 to 500 nM | 50 to 500 nM | < 100 nM | A (an IC50 ratio greater than or equal to 10 fold) | < 1000 nM | 50 to 500 nM | 100 to 1000 nM |
| CCc1cc(NC(=O)C(=O)N2C[C@@H](C)CC[C@@H]2c2cnc3c(c2)CCC(=O)N3)cnc1N (racemic) [Compound 916, rac-N-(6-Amino-5-ethyl-3-pyridyl)-2-[(2S,5R)-5-methyl-2-(7-oxo-6,8-dihydro-5H-1,8-naphthyridin-3-yl)-1-piperidyl]-2-oxo-acetamide] | > 500 nM | 50 to 500 nM | < 100 nM | A (an IC50 ratio greater than or equal to 10 fold) | 1000 to 10000 nM | 50 to 500 nM | > 1000 nM |
| Cc1cc(NC(=O)C(=O)N2C[C@H](C)CC[C@H]2c2ccc3sc(N)nc3c2)cnc1C (racemic) [Compound 920, 2-[(2R,5S)-2-(2-amino-1,3-benzothiazol-5-yl)-5-methyl-1-piperidyl]-N-(5,6-dimethyl-3-pyridyl)-2-oxo-acetamide] | 50 to 500 nM | 50 to 500 nM | < 100 nM | A (an IC50 ratio greater than or equal to 10 fold) | 1000 to 10000 nM | 50 to 500 nM | > 1000 nM |
| Cc1cc(NC(=O)C(=O)N2C[C@H](C)CC[C@H]2c2cnc3c(c2)CCC(=O)N3)cnc1N (racemic) [Compound 923, rac-N-(6-Amino-5-methyl-3-pyridyl)-2-[(2S,5R)-5-methyl-2-(7-oxo-6,8-dihydro-5H-1,8-naphthyridin-3-yl)-1-piperidyl]-2-oxo-acetamide] | 50 to 500 nM | 50 to 500 nM | 100 to 1000 nM | A (an IC50 ratio greater than or equal to 10 fold) | 1000 to 10000 nM | 50 to 500 nM | > 1000 nM |
| COc1ncc(NC(=O)C(=O)N2C[C@H](C)CC[C@H]2c2ccc(C)cn2)cc1C(N)=O (racemic) [Compound 932, 2-Methoxy-5-[[2-[(2R,5S)-5-methyl-2-(5-methyl-2-pyridyl)-1-piperidyl]-2-oxo-acetyl]amino]pyridine-3-carboxamide] | 50 to 500 nM | 50 to 500 nM | < 100 nM | A (an IC50 ratio greater than or equal to 10 fold) | 1000 to 10000 nM | 50 to 500 nM | > 1000 nM |
| Cc1ccc([C@H]2CC[C@H](C)CN2C(=O)C(=O)Nc2cncc(C(N)=O)c2)nc1 (racemic) [Compound 937, 5-[[2-[(2R,5S)-5-Methyl-2-(5-methyl-2-pyridyl)-1-piperidyl]-2-oxo-acetyl]amino]pyridine-3-carboxamide] | 50 to 500 nM | 50 to 500 nM | 100 to 1000 nM | A (an IC50 ratio greater than or equal to 10 fold) | 1000 to 10000 nM | 50 to 500 nM | > 1000 nM |
| Cc1cc(NC(=O)C(=O)N2C[C@H](C)C[C@@H](F)[C@H]2c2ccc(F)cc2)cnc1N (racemic) [Compound 939, N-(6-amino-5-methyl-3-pyridyl)-2-[(2R,3R,5R)-3-fluoro-2-(4-fluorophenyl)-5-methyl-1-piperidyl]-2-oxo-acetamide] | 50 to 500 nM | 50 to 500 nM | 100 to 1000 nM | A (an IC50 ratio greater than or equal to 10 fold) | 1000 to 10000 nM | 50 to 500 nM | > 1000 nM |
| Cc1cc(NC(=O)C(=O)N2C[C@H](C)C[C@H](F)[C@@H]2c2ccc(F)cc2)cnc1N (racemic) [Compound 940, N-(6-amino-5-methyl-3-pyridyl)-2-[(2R,3R,5S)-3-fluoro-2-(4-fluorophenyl)-5-methyl-1-piperidyl]-2-oxo-acetamide] | 50 to 500 nM | 50 to 500 nM | 100 to 1000 nM | A (an IC50 ratio greater than or equal to 10 fold) | 1000 to 10000 nM | 50 to 500 nM | > 1000 nM |
| Cc1cc(NC(=O)C(=O)N2C[C@H](C)CC[C@H]2c2ccsc2)cnc1N (racemic) [Compound 977, rac-N-(6-Amino-5-methyl-3-pyridyl)-2-[(2R,5S)-5-methyl-2-(3-thienyl)-1-piperidyl]-2-oxo-acetamide] | 50 to 500 nM | 50 to 500 nM | < 100 nM | B (an IC50 ratio greater than or equal to 3 fold but lower than 10 fold) | 1000 to 10000 nM | 50 to 500 nM | 100 to 1000 nM |
| Cc1ccc([C@H]2CC[C@@H](C)CN2C(=O)C(=O)Nc2cnc(N)c(C)c2)nc1 (racemic) [Compound 982, N-(6-amino-5-methyl-3-pyridyl)-2-[(2R,5R)-5-methyl-2-(5-methyl-2-pyridyl)-1-piperidyl]-2-oxo-acetamide] | > 500 nM | 50 to 500 nM | 100 to 1000 nM | B (an IC50 ratio greater than or equal to 3 fold but lower than 10 fold) | > 10000 nM | 50 to 500 nM | > 1000 nM |
| Cc1cc(NC(=O)C(=O)N2C[C@H](C)CC[C@H]2c2ccc(-c3nccs3)cn2)cnc1N (racemic) [Compound 991] | 50 to 500 nM | 50 to 500 nM | 100 to 1000 nM | C (an IC50 ratio of less than 3 fold) | 1000 to 10000 nM | 50 to 500 nM | > 1000 nM |
| Cc1cc(NC(=O)C(=O)N2C[C@H](C)CC[C@H]2c2ccc3[nH]c(N)nc3c2)cnc1C (racemic) [Compound 992] | 50 to 500 nM | < 50 nM | < 100 nM | A (an IC50 ratio greater than or equal to 10 fold) | 1000 to 10000 nM | 50 to 500 nM | > 1000 nM |
| Cc1ccc([C@@H]2CC[C@@H](C)CN2C(=O)C(=O)Nc2cnc(N)c(C)c2)nc1 (racemic) [Compound 1005, N-(6-Amino-5-methyl-3-pyridyl)-2-[(2R,5S)-5-methyl-2-(5-methyl-2-pyridyl)-1-piperidyl]-2-oxo-acetamide] | > 500 nM | 50 to 500 nM | 100 to 1000 nM | A (an IC50 ratio greater than or equal to 10 fold) | 1000 to 10000 nM | 50 to 500 nM | > 1000 nM |
| [2H][C@]1(c2ccc(F)cc2)CC[C@H](C)CN1C(=O)C(=O)Nc1cncc(C(N)=O)c1 (racemic) [Compound 1008, 5-(2-(2-(4-fluorophenyl)-5-methylpiperidin-1-yl-2-d)-2-oxoacetamido)nicotinamide] | 50 to 500 nM | 50 to 500 nM | 100 to 1000 nM | A (an IC50 ratio greater than or equal to 10 fold) | 1000 to 10000 nM | 50 to 500 nM | > 1000 nM |
| [2H]c1c([2H])c([C@@]2([2H])CC[C@H](C)CN2C(=O)C(=O)Nc2cncc(C(N)=O)c2)c([2H])c([2H])c1F (racemic) [Compound 1010, 5-(2-(2-(4-fluorophenyl-2,3,5,6-d4)-5-methylpiperidin-1-yl-2-d)-2-oxoacetamido)nicotinamide] | 50 to 500 nM | 50 to 500 nM | 100 to 1000 nM | A (an IC50 ratio greater than or equal to 10 fold) | 1000 to 10000 nM | 50 to 500 nM | > 1000 nM |
| Cc1cc(NC(=O)C(=O)N2C[C@H](C)CC[C@H]2c2ccc(F)c3[nH]ncc23)cnc1N (racemic) [Compound 1019] | 50 to 500 nM | 50 to 500 nM | < 100 nM | A (an IC50 ratio greater than or equal to 10 fold) | 1000 to 10000 nM | 50 to 500 nM | > 1000 nM |
| Cc1cc(NC(=O)C(=O)N2C[C@H](C)CC[C@H]2c2cncc(Cl)c2)cnc1N (racemic) [Compound 1025, N-(6-amino-5-methyl-3-pyridyl)-2-[(2R,5S)-2-(5-chloro-3-pyridyl)-5-methyl-1-piperidyl]-2-oxo-acetamide] | > 500 nM | 50 to 500 nM | < 100 nM | A (an IC50 ratio greater than or equal to 10 fold) | 1000 to 10000 nM | 50 to 500 nM | > 1000 nM |
| CC[C@@H]1CC[C@@H](c2cn[nH]c2)N(C(=O)C(=O)Nc2cnc(N)c(C)c2)C1 (racemic) [Compound 1032, N-(6-amino-5-methyl-3-pyridyl)-2-[(2R,5S)-5-ethyl-2-(1H-pyrazol-4-yl)-1-piperidyl]-2-oxo-acetamide] | 50 to 500 nM | 50 to 500 nM | < 100 nM | B (an IC50 ratio greater than or equal to 3 fold but lower than 10 fold) | 1000 to 10000 nM | 50 to 500 nM | 100 to 1000 nM |
